Laboratory results from patent US8445006B2, “Biomolecular coating for implants” (Georgia Tech Research Corporation, priority 2006, dated 2013).

Tests used:
MC3T3-E1 cells = test: Cell proliferation rate by BrdU incorporation; type: cell-based, murine; details: vs RGD-tethered surfaces at low and high peptide surface densities
Procedure: Cells were seeded on surfaces in 10% serum for 16 h, and BrdU (3.1 μg/ml) was added for the last 4 h. After washing with DPBS, samples were fixed in 70% cold ethanol for 10 min, denatured in 4 M HC1 for 20 min, neutralized in 50 mM NaCl in 100 mM Tris-HCI (pH 7.4), washed, and blocked with 5% FBS+1% heat-denatured BSA. Cultures were incubated in anti-BrdU antibody (1:1000) and AlexaFluor488-conjugated anti-mouse IgG (1:200). Nuclei were counter-stained with Hoechst dye (1:10,000). Fluorescent images were used to quantify the number of cells positive for BrdU relative to total cell nuclei using an in-house image analysis routine. Ten representative fields were analyzed per well with multiple wells for each surface condition.

[1] = tested on: bone marrow stromal cells; test: Centrifugation cell adhesion assay on poly(OEGMA) brush titanium surfaces; type: cell-based, rat; details: poly(OEGMA) brushes, 0.9 pmol/cm^2 ligand; for cell adhesion, no antibody: serum exposure
Procedure: Cell adhesion to functionalized and untreated titanium surfaces was measured using a centrifugation assay that applies controlled detachment forces. […] Control titanium slides were coated with 10% FBS (to model serum protein adsorption) or blocking buffer (5% non-fat dry milk in PBS to produce a non adhesive support). Stromal cells were loaded with the fluorescent dye calcein-AM (2 μg/ml, Molecular Probes), detached using trypsin+EDTA, and resuspended serum-free in PBS with 2 mM dextrose. Cells were seeded onto the substrates (10,000 cells/well) for 1 h at 37° C. […] After filling the wells with PBS/dextrose and sealing with transparent adhesive tape, substrates were inverted and spun at a fixed speed in a centrifuge (Beckman Allegra 6, GH 3.8 rotor) to apply a centrifugal force corresponding to 12 g. After centrifugation, media was exchanged and fluorescence intensity was read to measure remaining adherent cells. For each well, adherent cell fraction was calculated as the ratio of post-spin to pre-spin fluorescence readings.
In vitro evaluation of these engineered titanium surfaces was performed using primary rat bone marrow stromal cells since this heterogeneous population contains osteoprogenitors, and human bone marrow stromal cells are currently used in clinical applications. Cell adhesion was examined using a centrifugation assay that applies a controlled detachment force. […] As a complementary test of integrin specificity, integrin binding was quantified using a biochemical cross-linking/extraction/reversal technique.

[2] = tested on: bone marrow stromal cells; test: Centrifugation cell adhesion assay on titanium surfaces; type: cell-based, rat; details: for stromal cell adhesion (adherent cell fraction): 1 h serum-free, centrifugation 12 g, no antibody, adsorbed on Ti at 20 μg/ml
Procedure: Primary bone marrow stromal cells were harvested from the femora of young adult male Wistar rats in accordance with an IACUC-approved protocol. After excision, hindleg femora and tibiae were cleared of soft tissue and rinsed in growth medium (α-minimal essential medium supplemented with 10% fetal bovine serum, 1% penicillin-streptomycin, and 0.3 μg/ml amphotericin B). The ends of the long bones were then removed and the marrow space was flushed with culture medium (3-5 ml), using a syringe with an 18-gauge needle. Marrow isolates were pooled, centrifuged, resuspended in growth medium, and seeded for adhesion-dependent selection on tissue culture polystyrene dishes. Non-adherent hematopoietic cells were removed during subsequent medium exchanges, which occurred every other day. Cells were subcultured every two days according to standard techniques. For in vitro osteogenic assays, cells were seeded at 10,000 cells/cm^2 in growth medium. After 24 h, cultures were maintained in osteogenic medium consisting of growth medium supplemented with 50 μg/ml L-ascorbic acid and 3 mM sodium β-glycerophosphate.
The peptide […](GPP)5GFOGER(GPP)5GPC (SEQ ID NO:1) [O=hydroxyproline] was prepared by the Emory University Microchemical Facility using solid phase t-Boc synthesis. Peptide was supplied in the purified form as a trifluoroacetic acid (TFA) salt and reconstituted at a stock concentration of 10 mg/ml in 0.1% TFA. For the in vitro assays, glass chamber slides (16-well Lab-Tek Chamber Slides, Nalge Nunc) or tissue culture-treated polystyrene dishes were coated with 300 Å of pure titanium using an electron beam evaporator at a chamber base pressure between 1-2×10^−6 torr with a deposition rate of 1.5 Å/second. The GFOGER peptide (SEQ ID NO:1) was diluted to 20 μg/ml in Dulbecco's phosphate-buffered saline (PBS) and incubated on the titanium surfaces for 1 h at 22° C.
Cell adhesion to functionalized and untreated titanium surfaces was measured using a centrifugation assay that applies controlled detachment forces. Titanium-coated glass chamber slide wells were reassembled using a silicone-based adhesive and coated with 20 μg/ml GFOGER peptide (SEQ ID NO:1) or 20 μg/ml GRGDSPC (SEQ ID NO:3) peptide (BACHEM). Control titanium slides were coated with 10% FBS (to model serum protein adsorption) or blocking buffer (5% non-fat dry milk in PBS to produce a non adhesive support). […] Initial fluorescence intensity was measured to quantify the number of adherent cells prior to application of centrifugal force. […] After centrifugation, media was exchanged and fluorescence intensity was read to measure remaining adherent cells. For each well, adherent cell fraction was calculated as the ratio of post-spin to pre-spin fluorescence readings. […]

| Substance | cell proliferation rate (BrdU incorporation) (MC3T3-E1 cells) | cell adhesion with anti-αv antibody [1] | cell adhesion with blocking anti-α5 antibody [1] | cell adhesion, no antibody [1] | cell adhesion with blocking anti-α2 antibody ([2]; 20 μg/ml anti-rat α2 antibody) | cell adhesion with function-perturbing anti-αv antibody ([2]; 20 μg/ml anti-rat αv antibody) | stromal cell adhesion (adherent cell fraction) [2] |
| --- | --- | --- | --- | --- | --- | --- | --- |
| FNIII7-10: monobiotinylated recombinant fibronectin fragment spanning the 7-10th type III repeats of fibronectin; α5β1 integrin ligand | two-fold increase | had no effect | completely eliminated cell adhesion | high levels of cell adhesion | – | – | – |
| GGYGGGPC(GPP)5GFOGER(GPP)5GPC [GFOGER peptide] | – | – | – | – | completely eliminated cell adhesion | had no effect on adhesion | greater stromal cell adhesion |
| GRGDSPC [RGD peptide, linear RGD oligopeptide purchased from BACHEM; primarily supports αvβ3-mediated adhesion, reference compound] | – | eliminated adhesion | – | high levels of cell adhesion | – | – | equivalent to background levels |
